# Measurements published in US8889370B2, “Method of determining inhibitors of coagulation” (Siemens Healthcare Diagnostics Products GmbH, priority 2010, dated 2014).
# Like-named read-outs stand apart in the source and are kept apart here.
# Molecular target: T1, bovine thrombin (Bos taurus, UniProt P00735)
# T1 construct: a lyophilized thrombin reagent consisting of bovine thrombin; purchased Siemens Healthcare Diagnostics (hirudin activity assay, thrombin reagent)
# Assay: Determination of the thrombin binding constant (Ki) of peptide aldehyde ligands, chromogenic assay with hirudin activity assay reagents, Dixon plot
# Format: biochemical
# Description: The kinetic data of the peptide aldehyde ligands were determined in chromogenic assay formats by measuring the rate of hydrolysis of chromogenic peptide substrates which compete with the peptide aldehyde ligands for binding to the active site of the particular enzyme, at various substrate concentrations and peptide aldehyde-ligand concentrations. The binding constant (Ki) was determined by a known method (Dixon, M., 1953, Biochem J, 55, 170-171).
# The thrombin binding constant was determined using the reagents of the hirudin activity assay from Siemens Healthcare Diagnostics. The hirudin activity assay comprises a lyophilized thrombin reagent consisting of bovine thrombin, a heparin inhibitor and aprotinin, a lyophilized chromogenic substrate reagent with a concentration of 4 mmol/l tos-Gly-Pro-Arg-ANBA-IPA (tosylglycyl-L-propyl-arginyl-5-amino-2-nitrobenzoyliso-propylamide) after reconstitution. The thrombin reagent was reconstituted in buffer solution (trishydroxymethylamino-methane, NaCl, pH 8.2). Dilutions of the substrate reagent were prepared with deionized water. The peptide aldehyde ligands prepared according to example 1 were dissolved in water and used as sample. The B-r-G-R—H ligand was used in a concentration range from 26.1 to 0.815 μM. The B-f-P—R—H ligand was used in a concentration range from 26.1 to 0 μM. The assays were carried out automatically in a BCS® XP coagulation analyzer (Siemens Healthcare Diagnostics, Marburg, Germany).
# A reaction mix was mixed together as follows:
# 30 μl of sample (peptide aldehyde ligand B-r-G-R—H or B-f-P—R—H),
# 150 μl of thrombin reagent,
# 50 μl of chromogenic substrate reagent (tos-Gly-Pro-Arg-ABNA-IPA).
# The reaction rate in mE/min was determined on the basis of the increase in optical density of the reaction mix at a wavelength of 405 nm. For this, the optical density of the reaction mixes was determined in time intervals of from 15 to 40 seconds for the B-f-P—R—H peptide aldehyde ligand or 5-16 seconds for the B-r-G-R—H peptide aldehyde ligand.
# Reversibly and irreversibly binding ligands can be distinguished by their reaction kinetics. Plotting 1/v, where v is the reaction rate, as a function of the ligand concentration (i) at a constant concentration (S) of a cleavable substrate produces a line. When using two or more different substrate concentrations (S1, S2 . . . SN), said lines intersect at a single point. The x axis value of this point corresponds to −Ki, with Ki corresponding to the binding constant, see, for example, Klebe, G., Wirkstoffdesign, 2nd edition, Spektrum Akademischer Verlag, Heidelberg, Germany, 2009, pages 52-62 and Dixon, M., 1953, Biochem J, 55, 170-171. With an irreversible inhibition, the curves meet at a single point on the x axis, which again corresponds to −Ki.
smiles,measurement,setting,value
"N=C(N)NCCC[C@@H](C=O)NC(=O)CNC(=O)[C@@H](CCCNC(=N)N)NC(=O)CCC(=O)NCCCOCCOCCOCCCNC(=O)CCCC[C@@H]1SC[C@@H]2NC(=O)N[C@@H]21 [B-r-G-R-H, biotinyl-Ttds-D-Arg-Gly-Arg-H]",1/Reaction rate,"CB-r-G-R-H 0.81522 μM, Csubstrate = 0.5 mM",0.516 min/E
same,1/Reaction rate,"CB-r-G-R-H 0.81522 μM, Csubstrate = 2 mM",0.3884 min/E
same,1/Reaction rate,"CB-r-G-R-H 0.81522 μM, Csubstrate = 4 mM",0.3756 min/E
same,1/Reaction rate,"CB-r-G-R-H 1.30435 μM, Csubstrate = 0.5 mM",0.5211 min/E
same,1/Reaction rate,"CB-r-G-R-H 1.30435 μM, Csubstrate = 2 mM",0.3902 min/E
same,1/Reaction rate,"CB-r-G-R-H 1.30435 μM, Csubstrate = 4 mM",0.3758 min/E
same,1/Reaction rate,"CB-r-G-R-H 1.63043 μM, Csubstrate = 0.5 mM",0.5224 min/E
same,1/Reaction rate,"CB-r-G-R-H 1.63043 μM, Csubstrate = 2 mM",0.3894 min/E
same,1/Reaction rate,"CB-r-G-R-H 1.63043 μM, Csubstrate = 4 mM",0.3748 min/E
same,1/Reaction rate,"CB-r-G-R-H 2.60870 μM, Csubstrate = 0.5 mM",0.5283 min/E
same,1/Reaction rate,"CB-r-G-R-H 2.60870 μM, Csubstrate = 2 mM",0.3876 min/E
same,1/Reaction rate,"CB-r-G-R-H 2.60870 μM, Csubstrate = 4 mM",0.373 min/E
same,1/Reaction rate,"CB-r-G-R-H 3.26087 μM, Csubstrate = 0.5 mM",0.5385 min/E
same,1/Reaction rate,"CB-r-G-R-H 3.26087 μM, Csubstrate = 2 mM",0.3968 min/E
same,1/Reaction rate,"CB-r-G-R-H 3.26087 μM, Csubstrate = 4 mM",0.3807 min/E
same,1/Reaction rate,"CB-r-G-R-H 5.21739 μM, Csubstrate = 0.5 mM",0.5408 min/E
same,1/Reaction rate,"CB-r-G-R-H 5.21739 μM, Csubstrate = 2 mM",0.3946 min/E
same,1/Reaction rate,"CB-r-G-R-H 5.21739 μM, Csubstrate = 4 mM",0.3761 min/E
same,1/Reaction rate,"CB-r-G-R-H 6.52174 μM, Csubstrate = 0.5 mM",0.5637 min/E
same,1/Reaction rate,"CB-r-G-R-H 6.52174 μM, Csubstrate = 2 mM",0.4008 min/E
same,1/Reaction rate,"CB-r-G-R-H 6.52174 μM, Csubstrate = 4 mM",0.3841 min/E
same,1/Reaction rate,"CB-r-G-R-H 9.78261 μM, Csubstrate = 0.5 mM",0.5802 min/E
same,1/Reaction rate,"CB-r-G-R-H 9.78261 μM, Csubstrate = 2 mM",0.4106 min/E
same,1/Reaction rate,"CB-r-G-R-H 9.78261 μM, Csubstrate = 4 mM",0.3805 min/E
same,1/Reaction rate,"CB-r-G-R-H 13.04348 μM, Csubstrate = 0.5 mM",0.609 min/E
same,1/Reaction rate,"CB-r-G-R-H 13.04348 μM, Csubstrate = 2 mM",0.4032 min/E
same,1/Reaction rate,"CB-r-G-R-H 13.04348 μM, Csubstrate = 4 mM",0.3885 min/E
same,1/Reaction rate,"CB-r-G-R-H 16.30435 μM, Csubstrate = 0.5 mM",0.6264 min/E
same,1/Reaction rate,"CB-r-G-R-H 16.30435 μM, Csubstrate = 2 mM",0.414 min/E
same,1/Reaction rate,"CB-r-G-R-H 16.30435 μM, Csubstrate = 4 mM",0.3865 min/E
same,1/Reaction rate,"CB-r-G-R-H 26.08696 μM, Csubstrate = 0.5 mM",0.6903 min/E
same,1/Reaction rate,"CB-r-G-R-H 26.08696 μM, Csubstrate = 2 mM",0.4285 min/E
same,1/Reaction rate,"CB-r-G-R-H 26.08696 μM, Csubstrate = 4 mM",0.395 min/E
same,Intersect of regression curve 1/reaction rate vs ligand concentration,Csubstrate 0.5 mM,0.5122 min/E
same,Slope of regression curve 1/reaction rate vs ligand concentration,Csubstrate 0.5 mM,0.006964 min/E μM
same,Intersect of regression curve 1/reaction rate vs ligand concentration,Csubstrate 2 mM,0.3880 min/E
same,Slope of regression curve 1/reaction rate vs ligand concentration,Csubstrate 2 mM,0.001572 min/E μM
same,Intersect of regression curve 1/reaction rate vs ligand concentration,Csubstrate 4 mM,0.3746 min/E
same,Slope of regression curve 1/reaction rate vs ligand concentration,Csubstrate 4 mM,0.000805 min/E μM
same,Ki,"average of three Ki values, read-out: KiM average thrombin binding constant",20.9 µM
same,Ki,"intersection of regression curves Csubstrate 2 and 0.5 mM, read-out: Ki2&3 thrombin binding constant",23 µM
same,Ki,"intersection of regression curves Csubstrate 4 and 0.5 mM, read-out: Ki1&3 thrombin binding constant",22.3 µM
same,Ki,"intersection of regression curves Csubstrate 4 and 2 mM, read-out: Ki1&2 thrombin binding constant",17.4 µM
same,binding of the peptide aldehyde with thrombin (reversible or irreversible),intersections of regression curves not on the x axis,reversible
